# Where a name gives a salt, the structure may show the parent alone.
# Tests used:
# [1] = tested on: bacterial strains that express the class D cephalosporinase OXA-15; test: Synergy MIC / standard BLI potentiation MIC assay, strains expressing OXA-15; assay type: cell-based, E. coli; details: in the presence of a β-lactam; comparator Avibactam (comparator compound CCC)
# Outline: (§1)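 Broth microdilution in CAMHB per CLSI, ~10^5 CFU/mL, 18-20 h at 37° C; MIC is lowest concentration with no visible turbidity. Potentiation: β-lactam 128-0.13 μg/mL with BLI fixed at 4 μg/mL. Synergy: BLI serially diluted with β-lactam fixed. Engineered E. coli kept on 25 μg/mL tetracycline.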
# [2] = tested on: bacterial strains that express KPC β-lactamases; test: Synergy MIC / standard BLI potentiation MIC assay, strains expressing KPC β-lactamases; assay type: cell-based; details: more active for at least one KPC strain and/or better spectrum of activity than Avibactam; in the presence of a β-lactam
# Outline: as §1
smiles,measurement,setting,value
"NC1CCN(Cc2nnc([C@@H]3CC[C@@H]4CN3C(=O)N4OS(=O)(=O)O)o2)CC1 [Compound 774, (2S,5R)-2-(5-((4-aminopiperidin-1-yl)methyl)-1,3,4-oxadiazol-2-yl)-7-oxo-1,6-diazabicyclo[3.2.1]octan-6-yl hydrogen sulfate]","activity against bacterial strains that express the class D cephalosporinase OXA-15, compared with Avibactam",[1],more active than Avibactam
same,"activity and/or spectrum of activity against bacterial strains that express KPC β-lactamases, compared with Avibactam",[2],more active than Avibactam
"CC(C)(N)Cc1nnc([C@@H]2CC[C@@H]3CN2C(=O)N3OS(=O)(=O)O)o1 [Compound 737, (2S,5R)-2-(5-(2-amino-2-methylpropyl)-1,3,4-oxadiazol-2-yl)-7-oxo-1,6-diazabicyclo[3.2.1]octan-6-yl hydrogen sulfate]","activity against bacterial strains that express the class D cephalosporinase OXA-15, compared with Avibactam",[1],more active than Avibactam
same,"activity and/or spectrum of activity against bacterial strains that express KPC β-lactamases, compared with Avibactam",[2],more active than Avibactam
"N[C@H]1C[C@H](Cc2nnc([C@@H]3CC[C@@H]4CN3C(=O)N4OS(=O)(=O)O)o2)C1 [Compound 751, (2S,5R)-2-(5-(((1r,3S)-3-aminocyclobutyl)methyl)-1,3,4-oxadiazol-2-yl)-7-oxo-1,6-diazabicyclo[3.2.1]octan-6-yl hydrogen sulfate]","activity against bacterial strains that express the class D cephalosporinase OXA-15, compared with Avibactam",[1],more active than Avibactam
same,"activity and/or spectrum of activity against bacterial strains that express KPC β-lactamases, compared with Avibactam",[2],more active than Avibactam
"N[C@H]1C[C@@H](Cc2nnc([C@@H]3CC[C@@H]4CN3C(=O)N4OS(=O)(=O)O)o2)C1 [Compound 728, (2S,5R)-2-(5-(((1s,3R)-3-aminocyclobutyl)methyl)-1,3,4-oxadiazol-2-yl)-7-oxo-1,6-diazabicyclo[3.2.1]octan-6-yl hydrogen sulfate]","activity against bacterial strains that express the class D cephalosporinase OXA-15, compared with Avibactam",[1],more active than Avibactam
same,"activity and/or spectrum of activity against bacterial strains that express KPC β-lactamases, compared with Avibactam",[2],more active than Avibactam
"N=C(N)NCC(O)Cc1nnc([C@@H]2CC[C@@H]3CN2C(=O)N3OS(=O)(=O)O)o1 (stereo partly drawn) [Compound 730, (2S,5R)-2-(5-(3-guanidino-2-hydroxypropyl)-1,3,4-oxadiazol-2-yl)-7-oxo-1,6-diazabicyclo[3.2.1]octan-6-yl hydrogen sulfate]","activity against bacterial strains that express the class D cephalosporinase OXA-15, compared with Avibactam",[1],more active than Avibactam
same,"activity and/or spectrum of activity against bacterial strains that express KPC β-lactamases, compared with Avibactam",[2],more active than Avibactam
"O=C1N2C[C@@H](CC[C@H]2c2nnc(CCC3CNC3)o2)N1OS(=O)(=O)O [Compound 742, (2S,5R)-2-(5-(2-(azetidin-3-yl)ethyl)-1,3,4-oxadiazol-2-yl)-7-oxo-1,6-diazabicyclo[3.2.1]octan-6-yl hydrogen sulfate]","activity against bacterial strains that express the class D cephalosporinase OXA-15, compared with Avibactam",[1],more active than Avibactam
same,"activity and/or spectrum of activity against bacterial strains that express KPC β-lactamases, compared with Avibactam",[2],more active than Avibactam
"O=C1N2C[C@@H](CC[C@H]2c2nnc(CCCC3CNC3)o2)N1OS(=O)(=O)O [Compound 743, (2S,5R)-2-(5-(3-(azetidin-3-yl)propyl)-1,3,4-oxadiazol-2-yl)-7-oxo-1,6-diazabicyclo[3.2.1]octan-6-yl hydrogen sulfate]","activity against bacterial strains that express the class D cephalosporinase OXA-15, compared with Avibactam",[1],more active than Avibactam
same,"activity and/or spectrum of activity against bacterial strains that express KPC β-lactamases, compared with Avibactam",[2],more active than Avibactam
"O=C1N2C[C@@H](CC[C@H]2c2nnc(CCN3CCNCC3)o2)N1OS(=O)(=O)O [Compound 776, (2S,5R)-7-oxo-2-(5-(2-(piperazin-1-yl)ethyl)-1,3,4-oxadiazol-2-yl)-1,6-diazabicyclo[3.2.1]octan-6-yl hydrogen sulfate]","activity against bacterial strains that express the class D cephalosporinase OXA-15, compared with Avibactam",[1],more active than Avibactam
same,"activity and/or spectrum of activity against bacterial strains that express KPC β-lactamases, compared with Avibactam",[2],more active than Avibactam
"N=C(N)N1CC(Cc2nnc([C@@H]3CC[C@@H]4CN3C(=O)N4OS(=O)(=O)O)o2)C1 [Compound 741, (2S,5R)-2-(5-((1-carbamimidoylazetidin-3-yl)methyl)-1,3,4-oxadiazol-2-yl)-7-oxo-1,6-diazabicyclo[3.2.1]octan-6-yl hydrogen sulfate]","activity against bacterial strains that express the class D cephalosporinase OXA-15, compared with Avibactam",[1],more active than Avibactam
same,"activity and/or spectrum of activity against bacterial strains that express KPC β-lactamases, compared with Avibactam",[2],more active than Avibactam
"O=C1N2C[C@@H](CC[C@H]2c2nnc(COC3CNC3)o2)N1OS(=O)(=O)O [Compound 744, (2S,5R)-2-(5-((azetidin-3-yloxy)methyl)-1,3,4-oxadiazol-2-yl)-7-oxo-1,6-diazabicyclo[3.2.1]octan-6-yl hydrogen sulfate]","activity against bacterial strains that express the class D cephalosporinase OXA-15, compared with Avibactam",[1],more active than Avibactam
same,"activity and/or spectrum of activity against bacterial strains that express KPC β-lactamases, compared with Avibactam",[2],more active than Avibactam
"N=C(N)NC[C@H](O)c1nnc([C@@H]2CC[C@@H]3CN2C(=O)N3OS(=O)(=O)O)o1 [Compound 732, (2S,5R)-2-(5-((S)-2-guanidino-1-hydroxyethyl)-1,3,4-oxadiazol-2-yl)-7-oxo-1,6-diazabicyclo[3.2.1]octan-6-yl hydrogen sulfate]","activity against bacterial strains that express the class D cephalosporinase OXA-15, compared with Avibactam",[1],more active than Avibactam
same,"activity and/or spectrum of activity against bacterial strains that express KPC β-lactamases, compared with Avibactam",[2],more active than Avibactam
"N=C(N)NCCc1nnc([C@@H]2CC[C@@H]3CN2C(=O)N3OS(=O)(=O)O)o1 [Compound 705, (2S,5R)-2-(5-(2-guanidinoethyl)-1,3,4-oxadiazol-2-yl)-7-oxo-1,6-diazabicyclo[3.2.1]octan-6-yl hydrogen sulfate]","activity against bacterial strains that express the class D cephalosporinase OXA-15, compared with Avibactam",[1],more active than Avibactam
same,"activity and/or spectrum of activity against bacterial strains that express KPC β-lactamases, compared with Avibactam",[2],more active than Avibactam
"N[C@H]1C[C@@H](NCc2nnc([C@@H]3CC[C@@H]4CN3C(=O)N4OS(=O)(=O)O)o2)C1 [Compound 756, (2S,5R)-2-(5-((((1s,3R)-3-aminocyclobutyl)amino)methyl)-1,3,4-oxadiazol-2-yl)-7-oxo-1,6-diazabicyclo[3.2.1]octan-6-yl hydrogen sulfate]","activity against bacterial strains that express the class D cephalosporinase OXA-15, compared with Avibactam",[1],more active than Avibactam
same,"activity and/or spectrum of activity against bacterial strains that express KPC β-lactamases, compared with Avibactam",[2],more active than Avibactam
"O=C1N2C[C@@H](CC[C@H]2c2nnc(CNC3CNC3)o2)N1OS(=O)(=O)O [Compound 726, (2S,5R)-2-(5-((azetidin-3-ylamino)methyl)-1,3,4-oxadiazol-2-yl)-7-oxo-1,6-diazabicyclo[3.2.1]octan-6-yl hydrogen sulfate]","activity against bacterial strains that express the class D cephalosporinase OXA-15, compared with Avibactam",[1],more active than Avibactam
same,"activity and/or spectrum of activity against bacterial strains that express KPC β-lactamases, compared with Avibactam",[2],more active than Avibactam
"N=C(N)NC1CC(Cc2nnc([C@@H]3CC[C@@H]4CN3C(=O)N4OS(=O)(=O)O)o2)C1 (stereo partly drawn) [Compound 752, (2S,5R)-2-(5-((3-guanidinocyclobutyl)methyl)-1,3,4-oxadiazol-2-yl)-7-oxo-1,6-diazabicyclo[3.2.1]octan-6-yl hydrogen sulfate]","activity against bacterial strains that express the class D cephalosporinase OXA-15, compared with Avibactam",[1],more active than Avibactam
same,"activity and/or spectrum of activity against bacterial strains that express KPC β-lactamases, compared with Avibactam",[2],more active than Avibactam
"NCCCCc1nnc([C@@H]2CC[C@@H]3CN2C(=O)N3OS(=O)(=O)O)o1 [Compound 735, (2S,5R)-2-(5-(4-aminobutyl)-1,3,4-oxadiazol-2-yl)-7-oxo-1,6-diazabicyclo[3.2.1]octan-6-yl hydrogen sulfate]","activity against bacterial strains that express the class D cephalosporinase OXA-15, compared with Avibactam",[1],more active than Avibactam
same,"activity and/or spectrum of activity against bacterial strains that express KPC β-lactamases, compared with Avibactam",[2],more active than Avibactam
"O=C1N2C[C@@H](CC[C@H]2c2nnc(C3CCNC3)o2)N1OS(=O)(=O)O (stereo partly drawn) [Compound 710, (2S,5R)-7-oxo-2-(5-(pyrrolidin-3-yl)-1,3,4-oxadiazol-2-yl)-1,6-diazabicyclo[3.2.1]octan-6-yl hydrogen sulfate]","activity against bacterial strains that express the class D cephalosporinase OXA-15, compared with Avibactam",[1],more active than Avibactam
same,"activity and/or spectrum of activity against bacterial strains that express KPC β-lactamases, compared with Avibactam",[2],more active than Avibactam
"N[C@H]1C[C@@H](c2nnc([C@@H]3CC[C@@H]4CN3C(=O)N4OS(=O)(=O)O)s2)C1 [Compound 795, (2S,5R)-2-(5-((1s,3R)-3-aminocyclobutyl)-1,3,4-thiadiazol-2-yl)-7-oxo-1,6-diazabicyclo[3.2.1]octan-6-yl hydrogen sulfate]","activity against bacterial strains that express the class D cephalosporinase OXA-15, compared with Avibactam",[1],more active than Avibactam
same,"activity and/or spectrum of activity against bacterial strains that express KPC β-lactamases, compared with Avibactam",[2],more active than Avibactam
"C[n+]1ccc(-c2nnc([C@@H]3CC[C@@H]4CN3C(=O)N4OS(=O)(=O)[O-])o2)cc1 [Compound 782, (2S,5R)-2-(5-(1-methylpyridin-1-ium-4-yl)-1,3,4-oxadiazol-2-yl)-7-oxo-1,6-diazabicyclo[3.2.1]octan-6-yl sulfate]","activity against bacterial strains that express the class D cephalosporinase OXA-15, compared with Avibactam",[1],more active than Avibactam
same,"activity and/or spectrum of activity against bacterial strains that express KPC β-lactamases, compared with Avibactam",[2],more active than Avibactam

# From patent US20140315876A1, “BETA-LACTAMASE INHIBITORS” (priority 2013, published 2014)
